Results taken from patent US20230139826A1 (NONO INC., priority 2020, published 2023).
Residues, ends and D or L forms follow the SMILES beside them.

How the values were obtained:
[1] = system: embolic middle cerebral artery occlusion (eMCAO); experiment: Rat embolic middle cerebral artery occlusion model with alteplase reperfusion; format: in vivo, Sprague-Dawley rats
Description: To test this, male Sprague-Dawley rats (10-12 weeks old; 270-310 g; Charles River, Montreal, QC, Canada) were subjected to embolic middle cerebral artery occlusion (eMCAO), produced by the introduction of an autologous blood thrombus into the middle cerebral artery. Reperfusion was achieved by treatment with intravenous alteplase at a total dose of 5.4 mg/kg beginning at 90 minutes after ischemia onset. Alteplase was administered using the human injection protocol in which 10% of the total dose is given as a bolus, with the remainder 90% of the dose being given over a 60-minute infusion. […] This dose was chosen because in pilot studies, higher doses of alteplase (10× human dose) produced unacceptable mortality rates due to hemorrhagic conversions of strokes. Nerinetide was administered either 30 minutes prior to, or concurrently with, the start of the alteplase administration (FIG. 5A) at a dose of 7.6 mg/kg. […] Infarct volumes, hemispheric swelling and neurological scores were evaluated at 24 hours.
Male Sprague-Dawley rats were subjected to eMCAO as already described. Nerinetide (7.6 mg/kg) or D-Tat-L-2B9c (7.6 mg/kg) were given as bolus injections at 60 minutes. Alteplase (5.4 mg/kg over 60 min) was also started at 60 min after eMCAO, concurrently with the active agent that inhibits PSD-95. Neurological scoring, infarct volume, and hemispheric swelling were assessed at 24 hours (FIG. 8A).
The studies were designed to have 80% power to detect a 40% absolute difference between control and treatment groups at p=0.05. Animal randomization, drug allocation and treatment drug preparation were performed by a research associate not directly involved with surgical or outcome assessment. Nerinetide and D-Tat-L-2B9c were freshly prepared at a concentration of 7.6 mg/mL in 500 uL aliquots. Alteplase was prepared from lyophilized drug and, like matching placebo, stored in identical glass tubes. Drugs were kept at 4° C. until 10 minutes prior to use. The surgeon and the investigators responsible for the surgery, stroke volume measurement, behavioural assessment and statistical analysis were blinded to treatment allocation.

[2] = PK dose-separation study in cynomolgus macaques; format: in vivo, cynomolgus macaques (Macaca fascicularis); settings: macaque
Description: We conducted further PK studies to probe the necessary dose-separation interval to mitigate degradation. These studies were conducted in cynomolgus macaques (Macaca fascicularis) to maximize their relevance to humans. Nerinetide was given as a 10-minute intravenous infusion at a dose of 2.6 mg/kg. This dosing regimen was neuroprotective in macaques exposed to stroke by LVO (Cook et al., Nature 483, 213-217 (2012)) and was used in both the Phase 2 ENACT trial (Lancet Neurol 11, 942-950 (2012)) and the ESCAPE-NA1 trial (Lancet 395, 878-887 (2020)). We examined the scenarios in which alteplase administration was started simultaneously with the nerinetide infusion start, at the end of the 10-minute nerinetide infusion, or 10 minutes after the end of nerinetide infusion. Alteplase (1 mg/kg) was administered through a separate intravenous line as a 10% bolus, followed by an infusion of the remaining 90% over 1 hour, as per its clinical use.

[3] = In-vivo pharmacokinetic analysis in rats; settings: rat
Description: Since the effect of nerinetide in the ESCAPE-NA1 trial was negated by alteplase, we next evaluated the effects of alteplase on pharmacokinetics (PK) of nerinetide in rats. Alteplase was administered at 0.9 mg/kg (human dose) and at 5.4 mg/kg (6 times the human dose) in an infusion that simulated the clinical protocol (10% bolus followed by a 60 min infusion of the remainder). Nerinetide was administered as an intravenous bolus at the start of the alteplase infusion at 7.6 mg/kg.
The goal of these study was to evaluate nerinetide PK parameter changes when in the presence of circulating rt-PA and plasmin. Male naïve rats received an intravenous administration of either nerinetide alone, nerinetide plus rt-PA (0.9 mg/kg) or nerinetide plus rt-PA (5.4 mg/kg). Sample collection was performed pre-dose and 0 min, 5 min, 10 min, 20 min, 50 min post-dose. At each time point, approximately 300 uL of blood was sampled from each animal using a fresh syringe. Blood samples were collected in previously prepared Eppendorf tubes [30 ul of EDTA 2.5%] and centrifuged for 20 minutes to separate plasma and cell components.
Plasma samples were stored at −80° C. until analyzed.
Changes in peptide concentration were analyzed using a two-way repeated measures ANOVA, followed by the Sidak correction for multiple comparisons. The pharmacokinetic (PK) parameters of peak plasma concentration (Cmax) and the area under the plasma concentration-time curve from 0 to last measured concentration (AUC) were obtained with PKsolver Software (USA) using a non-compartmental analysis and employing a linear interpolation. For stroke studies, differences between groups were tested using a One-way ANOVA with a Tukey's correction for multiple comparisons. […] Values for animals experiencing premature death due to any reason including subarachnoid hemorrhage or hemorrhagic transformation were imputed to reflect the worst neurological score and the maximum stroke volume achieved across all animals.

[4] = 30-minute dose separation between nerinetide and alteplase
[5] = alteplase started at the end of the nerinetide infusion
[6] = nerinetide 7.6 mg/kg iv bolus with alteplase 0.9 mg/kg (human dose)
[7] = nerinetide 7.6 mg/kg iv bolus with alteplase 5.4 mg/kg

In the case of CC[C@H](C)[C@H](NC(=O)[C@H](CO)NC(=O)[C@H](CO)NC(=O)[C@H](CC(C)C)NC(=O)[C@H](CCCCN)NC(=O)[C@H](CCCN=C(N)N)NC(=O)[C@H](CCCN=C(N)N)NC(=O)[C@H](CCCN=C(N)N)NC(=O)[C@H](CCC(N)=O)NC(=O)[C@H](CCCN=C(N)N)NC(=O)[C@H](CCCN=C(N)N)NC(=O)[C@H](CCCCN)NC(=O)[C@H](CCCCN)NC(=O)[C@H](CCCN=C(N)N)NC(=O)CNC(=O)[C@@H](N)Cc1ccc(O)cc1)C(=O)N[C@@H](CCC(=O)O)C(=O)N[C@@H](CO)C(=O)N[C@@H](CC(=O)O)C(=O)N[C@H](C(=O)O)C(C)C [Nerinetide] (H-YGRKKRRQRRRKLSSIESDV-OH), the hemispheric swelling [1, 4] is reported as “reducing hemispheric swelling”, the neurological scores [1, 4] is reported as “improving neurological scores” and the “reduction of infarction volume” value ([1]; nerinetide alone 7.6 mg/kg, 60 minutes after eMCAO, 24 hours) is reported as 59.2%. The infarction volume ([1]; nerinetide alone 60 minutes after eMCAO (FIG. 5B), control 427±27) was 175±40 mm^3, the infarction volume ([1]; nerinetide alone 60 minutes after eMCAO, absence of alteplase (FIG. 8B), control 458±39) was 296±66 mm^3 and the infarct volume reduction ([1]; nerinetide at 60 minutes followed by alteplase 30 minutes later) was 70%. For the same compound, the “effect on infarction volume when given concurrently with alteplase” value ([1]; peptide 7.6 mg/kg and alteplase 5.4 mg/kg both at 60 min after eMCAO) was “eliminated completely”, the “degradation of Cmax or AUC by alteplase” value ([2]; alteplase 10 minutes after the end of the 10-min nerinetide infusion) was “eliminated degradation of Cmax or AUC” and the “reduction in the AUC of nerinetide” value [2, 5] was 32.3%. For the same compound, the “reduction of the Cmax of nerinetide” value [2, 5] was 23.1%, the “reduction in the AUC of nerinetide” value ([2]; alteplase started simultaneously) was 53.9% and the “reduction of the Cmax of nerinetide” value ([2]; nerinetide 2.6 mg/kg 10-minute infusion, alteplase 1 mg/kg started simultaneously) was 47.4%. The half-life ([3]; male, plasma, intravenous, 7.6 mg/kg, human equivalent concentrations) was 5 to 10 min, the “change of AUC of nerinetide” value [3, 6] was “non-significant reduction” and the “change of Cmax of nerinetide” value [3, 6] was “non-significant reduction”. The “lowering of the mean AUC of nerinetide” value [3, 7] was 44% and the “lowering of the mean Cmax of nerinetide” value [3, 7] was 49.5%.
